The subject of data set [1] is human leukemia cell lines (855-2, H9, HL-60, K562). The experiment in a line: [3H] thymidine uptake, human leukemia cell lines together. Particulars: 10 μM; each of the cell lines tested. It is filed as cell-based.
The test system of data set [2] is Human Neutrophils. Put plainly: superoxide generation by human neutrophils. The note with it: 10 μM.
Data set [3] relates to HIV-1 (MN strain) virions. The experiment in a line: zinc loss from HIV-1 virions. Format: biochemical. As for the experimental part:
Experiments were performed to determine if NOBA is capable of ejecting zinc from intact virions. HIV-1(MN strain) was produced, purified and concentrated as described in Bess et al., J. Virol. 66:840-847 (1992). The concentrated virus was diluted to 60 times that of culture fluid in TNE buffer (0.01 M Tris-HCl, 0.1M NaCl, 1 mM EDTA, pH 7.2) and incubated with 3000 or 6000 μM NOBA at 37° C. The virus was then pelleted and washed with TNE buffer to remove weakly bound zinc. The quantity of zinc in the resulting viral pellets was determined as described in Bess et al., J. Virol. 66:840-847 (1992).

Data set [4] has as its system various cancer cells (855-2, HL-60, D32, D37, CRL 7712, 186 medulla, L1210, MDA-468). The experiment in a line: functions of various cancer cells in presence of compounds (FIGS. 4-9). Format: cell-based. The note with it: summary statement.
Description: (§1) Experiments were performed in which the functions of various cancer cells (855-2 and HL-60 leukemia cells, D32, D37 and CRL 7712 glioblastoma cell lines, 186 medulla tumor cell line, L1210 murine leukemia cell line, MDA-468 human breast tumor cell line) and normal cells (neutrophil leukocytes and bone marrow or peripheral blood stream cells) were assessed in the absence or presence of the compounds.
Data set [5] concerns HIV-1. The experiment in a line: inhibition of HIV infection, virus titer in stimulated human lymphoblasts. It is filed as cell-based. The note with it: 10 μM; 30 min exposure, day 10; virus alone 5.25. How it is done: VIII. Anti-HIV action of NOBP, NOBA and NOQ on stimulated human lymphoblasts.
Exposure to the two drugs was only for 30 minutes at the commencement of viral infection, and drugs were never re-added. The results given in Table III provide the ID50 of HIV titer 10 days after infection of cell cultures with HIV.

The test system of data set [6] is normal rhesus bone marrow stem cells. The experiment in a line: CFU stem cell toxicity assay (FIG. 5A). Particulars: 10 μM.
The test system of data set [7] is 855-2 cells. Put plainly: cytocidal activity, MTT assay. The note with it: 10 μM; 100,000 cells/ml. It is filed as cell-based, human. As for the experimental part: MTT (3-[4,5-[…]]-2,5-diphenyltetrazolium bromide) at 1 mg/ml was then added for 16 hours. The absorbance of the pelleted cell was then measured at 550 nm after adding DMSO to solubilze the cells.

In data set [8] the test system is anti-tumor and anti-HIV. The experiment in a line: biological action of nitroso compounds (anti-tumor and anti-HIV, summary). It is filed as cell-based. The note with it: effective even after exposure of cells as short as 30 minutes.
In data set [9] the target is T1, Zn(HIV1-F1) oligonucleotide complex (Human immunodeficiency virus type 1 lw12.3 isolate, UniProt Q70622).
T1 construct: NC cut from Gag polyprotein (Pr55Gag)
The experiment in a line: NMR study of Zn(HIV1-F1) nucleic acid binding. It is filed as biochemical, HIV-1. Particulars: two equivalents NOBA. The source says:
The downfield regions of the spectra show the signals of the aromatic and ribose H1' protons, and the upfield region contain signals of the methyl group protons. Dramatic spectral changes occur upon addition of oligonucleotide to Zn(HIV1-F1), including large upfield shifts of the Phe 2 and Ile 10 side chain=n signals and a downfield shifting and broadening of the guanosine-H8 proton signal (second from the top).
The reaction mechanism, schematically illustrated in FIG. 12, is consistent with the result of NMR analysis in FIGS. 10 and 11. The reaction mechanism proposed in FIG. 12 is a useful model but is not intended to limit the scope of the claimed invention.

The test system of data set [10] is normal cells (neutrophil leukocytes and bone marrow or peripheral blood cells). Put plainly: viability / functions of normal cells in presence of compounds.
Description: as §1
Data set [11] deals with 855-2 cells. Put plainly: [3H] thymidine uptake / growth, 855-2 cells (FIG. 2A, E, F; FIG. 3). It is filed as cell-based, human. As for the experimental part:
FIGS. 2A-2F are a composite of graphs displaying the inhibitory effects of the ADRPT ligands on (FIG. 2A) 855-2 cells (a cell line of human B-cell lineage acute lymphoblastic leukemia), (FIG. 2B) H9 cells (a cell line of human T-cell lineage acute lymphoblastic leukemia), FIG. (2C) HL-60 cells (a cell line of human acute nonlymphoblastic leukemia) and (FIG. 2D) K562 cells (a cell line of human chronic myelogenous leukemia). These cells were cultured while under the influence of the growth factors in 10% fetal bovine serum (FCS), whereas in (FIG. 2E) and (FIG. 2F) the 855-2 cells were cultured in the presence of autocrine growth factor activity (AGF) or low molecular weight-B-cell growth factor (BCGF, a T-cell derived lymphokine), respectively.
Experiments using HL-60 cells (FIG. 2C) provided similar conclusions.
855-2 cells that were grown in media with (1) 10% fetal bovine serum, (2) autocrine growth factor (AGF) and (3) low molecular weight-BCGF (a T cell derived lymphokine) were exposed to increasing concentrations of the ADRPT ligands.

Data set [12] has as its system HL-60 cells. Put plainly: colony formation (CFU) of leukemic cells in semi-solid medium (FIG. 4). Format: cell-based, human.
Description: as §1
For data set [13], the system named is 855-2 cells. The data set is described as above. It is filed as cell-based, human.
Description: as §1
Data set [14] has as its system H9 cells. Put plainly: [3H] thymidine uptake, H9 cells (FIG. 2B). Format: cell-based, human. The note with it: 250 μM; 10% FCS.

Entries after “also recorded” stand apart in the source; their conditions may differ.

In the case of `NC(=O)c1cccc(N=O)c1` [NOBA, 3-nitrosobenzamide], in [1], the “inhibition of 3H-thymidine uptake” value is “powerfully inhibited”. For the same molecule, the “reduction in superoxide generation” value in [2] is given as “Only minor reductions”. In [2] (mean + S.D., n = 11, PMN + PMA), the “Generation of Superoxide by Human Neutrophils” value was determined as 44.4 ± 10.0 nmol 02^- /hr/10^5 cells. In [3] (3000 or 6000 μM, 37° C., p24, gp120 RIA, SDS-PAGE), the “loss of viral proteins in the pellet” value is listed as “No significant loss of viral proteins”. Besides, in [3] (concentrated HIV-1 (60x)), the “loss of infectivity” value is listed as “complete loss of infectivity”. In addition, the “losses of viral zinc” value in [3] (concentrated HIV-1 (60x)) is recorded as 50-83%. In [4], the “effectiveness against tumor cells” value is “highly effective”. In addition, the “Virus Titer (log ID50)” value in data set [5] was 1.05 log ID50. For the same molecule, the “CFU stem cell toxicity” value in data set [6] is listed as “non-toxic”. Besides, the “cell killing” value in [7] was “complete killing”. Moreover, in data set [8], the “anti-tumor and anti-HIV activity” value is listed as “highly active”. In data set [9], the “effect on zinc finger nucleic acid complex” value is “ejection of zinc with concomitant dissociation of the zinc finger nucleic acid complex; also recorded: NOBA-induced zinc ejection leads to loss of high-affinity nucleic acid binding function”. Besides, the “effect on colony formation by normal cells” value in data set [10] (anti-leukemic doses, rhesus bone marrow and human peripheral blood stem cells, FIG. 5) is recorded as “minimal effect on normal cells”. Also, the “effect on viability of normal cells” value in data set [10] (tumor cell inhibitory concentrations) is given as “not to affect adversely the viability of normal cells”. For the same molecule, the “growth arrest in increasing FCS” value in data set [11] (10 μM, increasing FCS concentrations) is listed as “Growth arrest occurs irrespective of the concentration of FCS”. In data set [11] (10% fetal bovine serum, AGF or BCGF), the “inhibitory effects with different growth factors” value is “potent inhibitory effects”. Moreover, the “ability to form colonies (CFU)” value in data set [12] and in [13] was “inhibit the ability” throughout. In data set [14], the “inhibition of thymidine uptake” value is “almost complete inhibition”.
